In assay [1] the target is T1, Recombinant STAT3 protein (STAT3 (G127-I722)) (Homo sapiens, UniProt P40763).
T1 construct: Recombinant STAT3 protein (STAT3 (G127-I722))
Briefly: STAT3 Fluorescence Polarization (FP) Assay. The assay is classed as binding. The settings on record: STAT3 25 nM, probe 5-FAM-GpYLPQTV-NH2 2 nM, 45-minute incubation; read-out: STAT3 (FP assay IC50). In a few lines: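 Displacement of a 2 nM 5-FAM-labelled pY peptide (GpYLPQTV) from 25 nM recombinant STAT3 (G127-I722) was monitored by fluorescence polarization. Incubation lasted 45 min at room temperature in pH 7.4 HEPES buffer containing 1% DMSO.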

In assay [2] the target is T2, Recombinant STAT6 protein (STAT6 (W123-T658)) (Homo sapiens, UniProt P42226).
T2 construct: Recombinant STAT6 protein (STAT6 (W123-T658))
T2 sequence (P42226 123-658): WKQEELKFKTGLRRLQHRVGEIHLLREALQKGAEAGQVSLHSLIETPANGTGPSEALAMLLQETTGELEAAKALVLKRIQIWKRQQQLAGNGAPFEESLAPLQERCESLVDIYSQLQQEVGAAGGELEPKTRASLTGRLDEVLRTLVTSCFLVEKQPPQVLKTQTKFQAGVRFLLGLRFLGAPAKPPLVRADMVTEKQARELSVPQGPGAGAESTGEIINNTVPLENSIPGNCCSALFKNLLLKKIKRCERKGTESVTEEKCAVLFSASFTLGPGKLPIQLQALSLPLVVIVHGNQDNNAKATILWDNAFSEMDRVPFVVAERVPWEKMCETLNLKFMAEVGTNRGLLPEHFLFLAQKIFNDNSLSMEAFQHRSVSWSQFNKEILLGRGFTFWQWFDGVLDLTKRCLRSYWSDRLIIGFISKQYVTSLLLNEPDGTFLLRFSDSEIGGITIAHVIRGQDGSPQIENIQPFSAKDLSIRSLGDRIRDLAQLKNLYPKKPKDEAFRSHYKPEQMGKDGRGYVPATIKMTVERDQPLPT
In words: STAT6 Fluorescence Polarization (FP) Assay. The assay is classed as binding. The settings on record: STAT6 250 nM, probe 5-FAM-Ap[…]-NH2 2 nM, 45-minute incubation; read-out: STAT6 (FP assay IC50). In a few lines:
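Recombinant STAT6 (W123-T658) at 250 nM mixed with 2 nM 5-FAM phosphotyrosine peptide probe in HEPES pH 7.4 buffer with DTT, 1% DMSO final, added to serially diluted compounds. FP (mP) read after 45 min at room temperature; IC50 by nonlinear regression vs log concentration.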

Where only a bound is given, the exact number is not on record here.

T1 sequence (P40763 127-722): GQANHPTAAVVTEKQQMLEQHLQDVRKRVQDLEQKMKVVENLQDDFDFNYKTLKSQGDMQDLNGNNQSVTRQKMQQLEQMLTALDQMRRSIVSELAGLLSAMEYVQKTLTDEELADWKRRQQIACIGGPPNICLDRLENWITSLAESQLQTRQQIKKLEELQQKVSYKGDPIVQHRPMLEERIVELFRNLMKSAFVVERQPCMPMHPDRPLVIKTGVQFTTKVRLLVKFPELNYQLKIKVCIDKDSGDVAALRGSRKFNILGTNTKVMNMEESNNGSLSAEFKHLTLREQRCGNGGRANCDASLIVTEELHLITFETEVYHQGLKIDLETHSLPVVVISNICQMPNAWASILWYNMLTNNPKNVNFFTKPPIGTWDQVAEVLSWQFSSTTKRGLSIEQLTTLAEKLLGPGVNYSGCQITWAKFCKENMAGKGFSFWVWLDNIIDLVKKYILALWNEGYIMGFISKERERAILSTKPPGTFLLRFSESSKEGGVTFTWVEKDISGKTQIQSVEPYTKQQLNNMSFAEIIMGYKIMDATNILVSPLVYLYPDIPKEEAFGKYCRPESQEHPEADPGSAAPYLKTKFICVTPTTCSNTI

What is called IC50 is the concentration at which inhibition is half-maximal. Consider `CCO[C@@H]1CC[C@H]2CC[C@@H](C(=O)N3CC(C(=O)N4CCOCC4)C3)N2C(=O)[C@@H](NC(=O)c2cc3cc(C(F)(F)P(=O)(O)O)ccc3s2)C1` [Compound 11, ((2-(((3S,6S,8R,10aR)-8-ethoxy-3-(3-(morpholine-4-carbonyl)azetidine-1-carbonyl)-5-oxodecahydropyrrolo [1,2-a]azocin-6-yl)carbamoyl)benzo[b]thiophen-5-yl)difluoromethyl) phosphonic acid], for which the IC50 in assay [1] lay in the range of 100 to 1000 nM; in assay [2] it was 3000 to 30000 nM.

Consider `N#C[C@H]1CN(C(=O)[C@@H]2CC[C@@H]3CC[C@H](O)C[C@H](NC(=O)c4cc5cc(C(F)(F)P(=O)(O)O)ccc5s4)C(=O)N32)C[C@@H]1c1ccccc1` [Compound 12, ((2-(((3S,6S,8S,10aR)-3-((3R,4S)-3-cyano-4-phenylpyrrolidine-1-carbonyl)-8-hydroxy-5-oxodecahydropyrrolo [1,2-a]azocin-6-yl)carbamoyl)benzo[b]thiophen-5-yl)difluoromethyl) phosphonic acid], for which the half-maximal inhibitory concentration (IC50) in assay [1] was 1000 to 10000 nM; in assay [2] it was at most 300 nM.

Take `C[C@]1(O)CC[C@H](NC(=O)c2cc3cc(C(F)(F)P(=O)(O)O)ccc3s2)C(=O)N2[C@H](CC[C@H]2C(=O)N2CC(C(=O)N3CCOCC3)C2)C1` [Compound 13, (difluoro(2-(((3S,6S,9S,10aR)-9-hydroxy-9-methyl-3-(3-(morpholine-4-carbonyl)azetidine-1-carbonyl)-5-oxodecahydropyrrolo [1,2-a]azocin-6-yl)carbamoyl)benzo [b]thiophen-5-yl)methyl) phosphonic acid]: the values for the IC50 in assay [1] and in assay [2] were below 100 nM and 3000 to 30000 nM, respectively.

On to `O=C(N[C@H]1CC[C@H](O)C[C@H]2CC[C@@H](C(=O)N3CC(n4ccnc4)C3)N2C1=O)c1cc2cc(C(F)(F)P(=O)(O)O)ccc2s1` [Compound 15, ((2-(((3S,6S,9S,10aR)-3-(3-(1H-imidazol-1-yl)azetidine-1-carbonyl)-9-hydroxy-5-oxodecahydropyrrolo [1,2-a]azocin-6-yl)carbamoyl)benzo[b]thiophen-5-yl)difluoromethyl) phosphonic acid], for which the figures for the half-inhibitory concentration (IC50) in assay [1] and in assay [2] were below 100 nM and 300 to 3000 nM, respectively.

Take `O=C(N[C@H]1CC[C@H](O)C[C@H]2CC[C@@H](C(=O)N3CC(c4cccnc4)C3)N2C1=O)c1cc2cc(C(F)(F)P(=O)(O)O)ccc2s1` [Compound 16, (difluoro(2-(((3S,6S,9S,10aR)-9-hydroxy-5-oxo-3-(3-(pyridin-3-yl)azetidine-1-carbonyl)decahydropyrrolo[1,2-a]azocin-6-yl)carbamoyl)benzo[b]thiophen-5-yl)methyl) phosphonic acid]: the concentration for half-maximal inhibition (IC50) in assay [1] is below 100 nM; in assay [2], 300 to 3000 nM.

On to `C[C@@]1(O)CC[C@H]2CC[C@@H](C(=O)N3CC(C(=O)N4CCOCC4)C3)N2C(=O)[C@@H](NC(=O)c2cc3cc(C(F)(F)P(=O)(O)O)ccc3s2)C1` [Compound 17, (difluoro(2-(((3S,6S,8R,10aR)-8-hydroxy-8-methyl-3-(3-(morpholine-4-carbonyl)azetidine-1-carbonyl)-5-oxodecahydropyrrolo [1,2-a]azocin-6-yl)carbamoyl)benzo[b]thiophen-5-yl)methyl) phosphonic acid], for which the IC50 in assay [1] was below 100 nM; in assay [2], 3000 to 30000 nM.

`O=C(N[C@H]1CC[C@H](N2CCC2)C[C@H]2CC[C@@H](C(=O)N3CC(C(=O)N4CCOCC4)C3)N2C1=O)c1cc2cc(C(F)(F)P(=O)(O)O)ccc2s1` [Compound 20, ((2-(((3S,6S,9S,10aR)-9-(azetidin-1-yl)-3-(3-(morpholine-4-carbonyl)azetidine-1-carbonyl)-5-oxodecahydropyrrolo [1,2-a]azocin-6-yl)carbamoyl)benzo[b]thiophen-5-yl)difluoromethyl) phosphonic acid]: the figures for the concentration for half-maximal inhibition (IC50) in assay [1] and in assay [2] were 100 to 1000 nM and 3000 to 30000 nM, respectively.

For the compound `CN(C(=O)[C@@H]1CC[C@@H]2CCCC[C@H](NC(=O)c3cc4cc(C(F)(F)P(=O)(O)O)ccc4s3)C(=O)N21)c1ccc2nnccc2c1` [Compound 24, ((2-(((3S,6S,10aS)-3-(cinnolin-6-yl (methyl)carbamoyl)-5-oxodecahydropyrrolo [1,2-a]azocin-6-yl)carbamoyl)benzo[b]thiophen-5-yl)difluoromethyl) phosphonic acid], the half-maximal inhibitory concentration (IC50) was 100 to 1000 nM in assay [1] and at most 300 nM in assay [2].

As for `O=C(N[C@H]1CCC2(CC2)C[C@H]2CC[C@@H](C(=O)N3CC(c4cccnc4)C3)N2C1=O)c1cc2cc(C(F)(F)P(=O)(O)O)ccc2s1` [Compound 25, (difluoro(2-(((3′S,6′S,10a′R)-5′-oxo-3′-(3-(pyridin-3-yl)azetidine-1-carbonyl)octahydro-1′H-spiro [cyclopropane-1,9′-pyrrolo[1,2-a]azocin]-6′-yl)carbamoyl)benzo[b]thiophen-5-yl)methyl) phosphonic acid], the figures for the concentration for half-maximal inhibition (IC50) in assay [1] and in assay [2] were below 100 nM and 300 to 3000 nM, respectively.

Take `O=C(N[C@H]1CC/C=C\[C@H]2CC[C@@H](C(=O)N3CC(c4cccnc4)C3)N2C1=O)c1cc2cc(C(F)(F)P(=O)(O)O)ccc2s1` [Compound 26, (difluoro(2-(((3S,6S,10aR,Z)-5-oxo-3-(3-(pyridin-3-yl)azetidine-1-carbonyl)-1,2,3,5,6,7,8,10a-octahydropyrrolo[1,2-a]azocin-6-yl)carbamoyl)benzo[b]thiophen-5-yl)methyl) phosphonic acid]: the concentration for half-maximal inhibition (IC50) in assay [1] was below 100 nM; in assay [2] it was 300 to 3000 nM.

In the case of `O=C(N[C@H]1CCC[C@H]2CC[C@@H](C(=O)Nc3ccc(-c4ccccc4)cc3)N2C1=O)c1ccc2ccc(C(F)(F)P(=O)(O)O)cc2c1` [Compound 29, ((7-(((3S,6S,9aS)-3-([1,1′-biphenyl]-4-ylcarbamoyl)-5-oxooctahydro-1H-pyrrolo[1,2-a]azepin-6-yl)carbamoyl)naphthalen-2-yl)difluoromethyl) phosphonic acid], the IC50 was 100 to 1000 nM in assay [1] and 3000 to 30000 nM in assay [2].

With `CN(C(=O)[C@@H]1CC[C@@H]2C/C=C\C[C@H](NC(=O)c3cc4cc(C(F)(F)P(=O)(O)O)ccc4[nH]3)C(=O)N21)c1ccccc1` [Compound 30], the 50% inhibitory concentration (IC50) in assay [1] lay in the range of 1000 to 10000 nM; in assay [2], 300 to 3000 nM.

Consider `O=C(N[C@H]1CCC[C@H]2CC[C@@H](C(=O)NCc3c[nH]c4ncccc34)N2C1=O)c1cc2cc(C(F)(F)P(=O)(O)O)ccc2s1` [Compound 31, ((2-(((3S,6S,9aS)-3-(((1H-pyrrolo[2,3-b]pyridin-3-yl)methyl)carbamoyl)-5-oxooctahydro-1H-pyrrolo[1,2-a]azepin-6-yl)carbamoyl)benzo [b]thiophen-5-yl)difluoromethyl) phosphonic acid], for which the IC50 in assay [1] was in the range of 100 to 1000 nM; in assay [2], 300 to 3000 nM.

Take `CS(=N)(=O)CC1CN(C(=O)[C@@H]2CC[C@@H]3CCC[C@H](NC(=O)c4cc5cc(C(F)(F)P(=O)(O)O)ccc5s4)C(=O)N32)C1` (stereo partly drawn) [Compound 32, (difluoro(2-(((3S,6S,9aS)-3-(3-((S-methyl-sulfonimidoyl)methyl)azetidine-1-carbonyl)-5-oxooctahydro-1H-pyrrolo[1,2-a]azepin-6-yl)carbamoyl)benzo[b]thiophen-5-yl)methyl) phosphonic acid]: the half-inhibitory concentration (IC50) was below 100 nM in assay [1] and 3000 to 30000 nM in assay [2].

As for `O=C(N[C@H]1CCC[C@H]2CC[C@@H](C(=O)N3CC(c4cccnc4)C3)N2C1=O)c1cc2cc(C(F)(F)P(=O)(O)O)ccc2s1` [Compound 33, (difluoro(2-(((3S,6S,9S)-5-oxo-3-(3-(pyridin-3-yl)azetidine-1-carbonyl)octahydro-1H-pyrrolo[1,2-a]azepin-6-yl)carbamoyl)benzo[b]thiophen-5-yl)methyl) phosphonic acid], the IC50 in assay [1] was below 100 nM; in assay [2], 300 to 3000 nM.

Take `O=C(N[C@H]1CCC[C@H]2CC[C@@H](C(=O)N3CC(N4CCOCC4)C3)N2C1=O)c1cc2cc(C(F)(F)P(=O)(O)O)ccc2s1` [Compound 34, (difluoro(2-(((3S,6S,9aS)-3-(3-morpholino-azetidine-1-carbonyl)-5-oxooctahydro-1H-pyrrolo[1,2-a]azepin-6-yl)carbamoyl)benzo[b]thiophen-5-yl)methyl) phosphonic acid]: the IC50 in assay [1] lay within 100 to 1000 nM; in assay [2], 3000 to 30000 nM.

`O=C(/C=C/c1ccc(C(F)(F)P(=O)(O)O)cc1)N[C@H]1CCC[C@H]2CC[C@@H](C(=O)Nc3ccc(-c4ccccc4)cc3)N2C1=O` [Compound 35, ((4-((E)-3-(((3S,6S,9S)-3-([1,1′-biphenyl]-4-ylcarbamoyl)-5-oxooctahydro-1H-pyrrolo[1,2-a]azepin-6-yl)amino)-3-oxoprop-1-en-1-yl)phenyl)difluoromethyl) phosphonic acid]: the half-inhibitory concentration (IC50) in assay [1] was above 10000 nM; in assay [2], 3000 to 30000 nM.

The values above are taken from patent US20250215029A1 (Recludix Pharma, Inc., priority 2022, published 2025).
